# Test results as given in US9663460B2, “Sulfur derivatives as chemokine receptor modulators” (ALLERGAN, INC., priority 2010, dated 2017).
# Molecular target: CCR2 (Homo sapiens (Human), UniProt P41597)
# Test: Calcium activity assayed on the FLIPR Tetra in HEK-Gqi5 cells stably expressing CCR2
# Type: cell-based
# Details: FLIPR Tetra calcium assay
# CCR2, sequence (P41597 whole entry, species assumed): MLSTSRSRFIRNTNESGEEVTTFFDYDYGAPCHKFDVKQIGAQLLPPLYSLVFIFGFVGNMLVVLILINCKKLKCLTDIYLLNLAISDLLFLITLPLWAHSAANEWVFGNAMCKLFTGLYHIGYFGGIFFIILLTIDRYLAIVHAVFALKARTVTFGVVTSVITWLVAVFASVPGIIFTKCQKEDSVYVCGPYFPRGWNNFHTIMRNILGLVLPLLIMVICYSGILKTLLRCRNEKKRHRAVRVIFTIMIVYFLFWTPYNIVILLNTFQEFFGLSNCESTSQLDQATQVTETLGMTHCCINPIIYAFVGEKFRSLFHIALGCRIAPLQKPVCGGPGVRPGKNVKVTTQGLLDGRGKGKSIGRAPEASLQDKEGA
CCR2 % ANTAGONISM,IC50,Compound
93%,32 nM,O=S(=O)(Cc1cccnc1)c1ccc(Cl)cc1NS(=O)(=O)c1cc2ccccc2o1 [N-{5-chloro-2-[(pyridin-3-ylmethyl)sulfonyl]phenyl}-1-benzofuran-2-sulfonamide]
97%,22 nM,O=S(=O)(Nc1cc(Cl)ccc1SCc1cccnc1)c1cc2ccccc2o1 [N-{5-chloro-2-[(pyridin-3-ylmethyl)thio]phenyl}-1-benzofuran-2-sulfonamide]
104%,506 nM,O=S(=O)(Nc1cc(Cl)ccc1[S+]([O-])Cc1ncccn1)c1cc2ccccc2o1 (stereo not drawn) [N-{5-chloro-2-[(pyrimidin-2-ylmethyl)sulfinyl]phenyl}-1-benzofuran-2-sulfonamide]
104%,151 nM,O=S(=O)(Cc1ncccn1)c1ccc(Cl)cc1NS(=O)(=O)c1cc2ccccc2o1 [N-{5-chloro-2-[(pyrimidin-2-ylmethyl)sulfonyl]phenyl}-1-benzofuran-2-sulfonamide]
100%,549 nM,O=S(=O)(Nc1cc(Cl)ccc1SCc1ncccn1)c1cc2ccccc2o1 [N-{5-chloro-2-[(pyrimidin-2-ylmethyl)thio]phenyl}-1-benzofuran-2-sulfonamide]
89%,19 nM,O=S(=O)(Nc1cc(Cl)ccc1[S+]([O-])C(F)(F)F)c1cc2ccccc2o1 (stereo not drawn) [N-{5-chloro-2-[(trifluoromethyl)sulfinyl]phenyl}-1-benzofuran-2-sulfonamide]
91%,73 nM,O=S(=O)(Nc1cc(Cl)ccc1S(=O)(=O)C(F)(F)F)c1cc2ccccc2o1 [N-{5-chloro-2-[(trifluoromethyl)sulfonyl]phenyl}-1-benzofuran-2-sulfonamide]
92%,333 nM,O=S(=O)(Nc1cc(Cl)ccc1SC(F)(F)F)c1cc2ccccc2o1 [N-{5-chloro-2-[(trifluoromethyl)thio]phenyl}-1-benzofuran-2-sulfonamide]
96%,314 nM,O=[N+]([O-])c1cccc(C[S+]([O-])c2ccc(F)cc2NS(=O)(=O)c2cc3ccccc3o2)c1 (stereo not drawn) [N-{5-fluoro-2-[(3-nitrobenzyl)sulfinyl]phenyl}-1-benzofuran-2-sulfonamide]
81%,693 nM,O=[N+]([O-])c1cccc(CS(=O)(=O)c2ccc(F)cc2NS(=O)(=O)c2cc3ccccc3o2)c1 [N-{5-fluoro-2-[(3-nitrobenzyl)sulfonyl]phenyl}-1-benzofuran-2-sulfonamide]
84%,845 nM,COc1ccc([S+]([O-])Cc2cccc([N+](=O)[O-])c2)c(NS(=O)(=O)c2cc3ccccc3o2)c1 (stereo not drawn) [N-{5-methoxy-2-[(3-nitrobenzyl)sulfinyl]phenyl}-1-benzofuran-2-sulfonamide]
79%,141 nM,CCOC(=O)C[S+]([O-])c1ccc(Cl)cc1NS(=O)(=O)c1ccc(Cl)c(C(F)(F)F)c1 (stereo not drawn) [ethyl {[4-chloro-2-({[4-chloro-3-(trifluoromethyl)phenyl]sulfonyl}amino)phenyl]sulfinyl}acetate]
82%,108 nM,COC(=O)CC[S+]([O-])c1ccc(Cl)cc1NS(=O)(=O)c1ccc(Cl)c(C(F)(F)F)c1 (stereo not drawn) [methyl 3-{[4-chloro-2-({[4-chloro-3-(trifluoromethyl)phenyl]sulfonyl}amino)phenyl]sulfinyl}propanoate]
101%,2400 nM,"CC(C)(C)OC(=O)Nc1nc(C[S+]([O-])c2ccc(Cl)cc2NS(=O)(=O)c2cc3ccccc3o2)cs1 (stereo not drawn) [tert-butyl {4-[({2-[(1-benzofuran-2-ylsulfonyl)amino]-4-chlorophenyl}sulfinyl)methyl]-1,3-thiazol-2-yl}carbamate]"
72%,,"CC(C)(C)OC(=O)Nc1nc(CS(=O)(=O)c2ccc(Cl)cc2NS(=O)(=O)c2cc3ccccc3o2)cs1 [tert-butyl {4-[({2-[(1-benzofuran-2-ylsulfonyl)amino]-4-chlorophenyl}sulfonyl)methyl]-1,3-thiazol-2-yl}carbamate]"
29%,2870 nM,CC(C)(C)OC(=O)Nc1cc(CS(=O)(=O)c2ccc(Cl)cc2NS(=O)(=O)c2cc3ccccc3o2)cc[n+]1[O-] [tert-butyl {4-[({2-[(1-benzofuran-2-ylsulfonyl)amino]-4-chlorophenyl}sulfonyl)methyl]-1-oxidopyridin-2-yl}carbamate]
76%,2260 nM,CC(C)(C)OC(=O)Nc1cc(CS(=O)(=O)c2ccc(Cl)cc2NS(=O)(=O)c2cc3ccccc3o2)ccn1 [tert-butyl {4-[({2-[(1-benzofuran-2-ylsulfonyl)amino]-4-chlorophenyl}sulfonyl)methyl]pyridin-2-yl}carbamate]
28%,2420 nM,"CC(C)(C)OC(=O)Nc1nc(CSc2ccc(Cl)cc2NS(=O)(=O)c2cc3ccccc3o2)cs1 [tert-butyl {4-[({2-[(1-benzofuran-2-ylsulfonyl)amino]-4-chlorophenyl}thio)methyl]-1,3-thiazol-2-yl}carbamate]"
40%,2000 nM,CC(C)(C)OC(=O)Nc1cc(CSc2ccc(Cl)cc2NS(=O)(=O)c2cc3ccccc3o2)ccn1 [tert-butyl {4-[({2-[(1-benzofuran-2-ylsulfonyl)amino]-4-chlorophenyl}thio)methyl]pyridin-2-yl}carbamate]
82%,527 nM,CC(C)(C)OC(=O)Nc1cccc(C[S+]([O-])c2ccc(Cl)cc2NS(=O)(=O)c2cc3ccccc3o2)n1 (stereo not drawn) [tert-butyl {6-[({2-[(1-benzofuran-2-ylsulfonyl)amino]-4-chlorophenyl}sulfinyl)methyl]pyridin-2-yl}carbamate]
